From US6699887B2, “Anti-HIV pyrazole derivatives” (Hoffmann-La Roche Inc., priority 2000, dated 2004) come the findings set out here.

In assay [1] the target is HIV-1 RT (Human immunodeficiency virus type 1 group M subtype B, UniProt P04585). The assay can be described thus: HIV-1 Reverse Transcriptase Assay: Inhibitor IC50 Determination. The assay is classed as biochemical. To be noted: purified recombinant enzyme, poly(rA)/oligo(dT)16 template-primer, 37° C. 30 min. On the procedure:
Assay Method: HIV-1 Reverse Transcriptase Assay: Inhibitor IC50 Determination:
HIV-1 RT assay was carried out in 96-well Millipore filtermat NOB50 plates using purified recombinant enzyme and a poly(rA)/oligo(dT)16 template-primer in a total volume of 50 μL. The assay constituents were 50 mM Tris/HCl, 50 mM NaCl, 1 mM EDTA, 6 mM MgCl2, 5 μM dTTP, 0.1 μCi [^3H] dTTP, 5 μg/ml poly (rA) pre annealed to 2.5 μg/ml oligo (dT)16 and a range of inhibitor concentrations in a final concentration of 10% DMSO. Reactions were initiated by adding 5 nM HIV-1 RT and after incubation at 37° C. for 30 min, they were stopped by the addition of 50 μl ice cold 20%TCA and allowed to precipitate at 4° C. for 30 min. The precipitates were collected by applying vacuum to the plate and sequentially washing with 2×200 μl of 10% TCA and 2×200 μl 70% ethanol. Finally the plates were dried and radioactivity counted in a Wallac Microbeta 1450 after the addition of 15 μl scintillation fluid per well. IC50's were calculated by plotting % inhibition versus log10 inhibitor concentrations.

In assay [2] the test system is HXB2-strain of HIV. The assay can be described thus: Antiviral assay: protection of HIV-infected MT4 cells from cell death (MTT). The assay is classed as cell-based. To be noted: Human immunodeficiency virus 1, 120 h; MT4 cells infected with HXB2-strain of HIV, 5 days, MTT viability. On the procedure: Anti-HIV antiviral activity was assessed using an adaptation of the method of Pauwels et al. {Pauwels et al., 1988, J Virol Methods 20:309-321}. The method is based on the ability of compounds to protect HIV-infected T lymphoblastoid cells (MT4 cells) from cell-death mediated by the infection. The endpoint of the assay was calculated as the concentration of compound at which the cell viability of the culture was preserved by 50% (‘50% inhibitory concentration’, IC50). The cell viability of a culture was determined by the uptake of soluble, yellow 3-[4,5-dimethylthiazol-2-yl]-2,5-diphenyltetrazolium bromide (MTT) and its reduction to a purple insoluble formazan salt. After solubilization, spectrophotometric methods were employed to measure the amount of formazan product.
MT4 cells were prepared to be in logarithmic-phase growth and a total of 2×10^6 cells infected with the HXB2-strain of HIV at a multiplicity of 0.0001 infectious units of virus per cell in a total volume of between 200-500 microliters. The cells were incubated with virus for one hour at 37° C. before removal of virus. The cells are then washed in 0.01 M phosphate buffered saline, pH 7.2 before being resuspensed in culture medium for incubation in culture with serial dilutions of test compound. The culture medium used was RPMI 1640 without phenol red, supplemented with penicillin, streptomycin, L-glutamine and 10% fetal calf serum (GM10).
Test compounds were prepared as 2 mM solutions in dimethyl sulphoxide (DMSO). Four replicate, serial 2-fold dilutions in GM10 were then prepared and 50 microliters amounts placed in 96-well plates over a final nanomolar concentration range of 625-1.22. Fifty microliters GM10 and 3.5×10^4 infected cells were then added to each well. Control cultures containing no cells (blank), uninfected cells (100% viability; 4 replicates) and infected cells without compound (total virus-mediated cell death; 4 replicates) were also prepared. The cultures were then incubated at 37° C. in a humidified atmosphere of 5% CO2 in air for 5 days.
A fresh solution of 5 mg/mL MTT was prepared in 0.01 M phosphate buffered saline, pH 7.2 and 20 microliters added to each culture. The cultures were further incubated as before for 2 hours. They were then mixed by pipetting up and down and 170 microliters of Triton X-100 in acidified isopropanol (10% v/v Triton X-100 in 1:250 mixture of concentrated HCl in isopropanol). When the formazan deposit was fully solubilized by further mixing, the absorbance (OD) of the cultures was measured at 540 nm and 690 nm wavelength (690 nm readings were used as blanks for artefacts between wells). The percent protection for each treated culture was then calculated from the equation: [formula]
The IC50 can be obtained from graph plots of percent protection versus log10 drug concentration.

Turning to `Cc1nn(C(C)C)c(Sc2cc(Cl)cc(Cl)c2)c1Cc1ccncc1F`, the IC50 is 373 nM in assay [1] and 11.1 nM in assay [2].

Regarding `Cc1cccc(Sc2c(Cc3ccncc3F)c(C)nn2C(C)C)c1`, the half-maximal inhibitory concentration (IC50) amounted to 480 nM in assay [1] and 19 nM in assay [2]. As to `Cc1nn(C(C)C)c(Sc2cc(Cl)cc(Cl)c2)c1Cc1ccc(C#N)cc1`, the half-inhibitory concentration (IC50) in assay [1] came to 176 nM; in assay [2] it was 11.9 nM. For `CCn1nc(C)c(Cc2cncc(Br)c2)c1Sc1cc(Cl)cc(Cl)c1` the same measures were 398 nM and 124 nM. For `Cc1cc(Cc2c(C)nn(C(C)C)c2Sc2cc(Cl)cc(Cl)c2)cc(Cl)n1`, the IC50 worked out at 880 nM in assay [1] and 28 nM in assay [2]. Regarding `Cc1nn(-c2ccccc2)c(Sc2cc(Cl)cc(Cl)c2)c1Cc1ccncc1`, the concentration for half-maximal inhibition (IC50) in assay [1] came out at 105 nM; in assay [2] it was 36 nM.

In the case of `Cc1nn(C(C)C)c(Sc2cc(Cl)cc(Cl)c2)c1Cc1cccnc1`, the half-inhibitory concentration (IC50) in assay [1] came out at 572 nM; in assay [2] it was 14.6 nM. Take `Cc1cccc(Sc2c(Cc3ccncc3Cl)c(C)nn2C(C)C)c1`: the IC50 in assay [1] was 1080 nM. On to `Cc1nn(C(C)C)c(Sc2cc(Cl)cc(Cl)c2)c1Cc1ccncc1`, for which the concentration for half-maximal inhibition (IC50) in assay [1] stood at 76 nM; in assay [2], 2.7 nM. For `Cc1nn(C(C)C)c(Sc2cc(Cl)cc(Cl)c2)c1COc1ccncc1`, the IC50 in assay [1] amounted to 252 nM; in assay [2] it was 20 nM. As to `CCn1nc(C)c(Cc2ccncc2)c1Sc1cc(Cl)cc(Cl)c1`, the values for the 50% inhibitory concentration (IC50) in assay [1] and in assay [2] were 84 nM and 9 nM, respectively. The matching figures for `Cc1nn(C(C)C)c(Sc2cc(Cl)cc(Cl)c2)c1Cc1ccnc(Cl)c1`: 109 nM and 15 nM. In the case of `Cc1nn(C(C)C)c(Sc2cccc(Br)c2)c1Cc1ccncc1Cl`, the 50% inhibitory concentration (IC50) in assay [1] is 5200 nM. Consider `Cc1nn(C(C)C)c(Sc2cc(Cl)cc(Cl)c2)c1CSc1ccncc1`, for which the values for the IC50 in assay [1] and in assay [2] were 292 nM and 34.1 nM, respectively.

In the case of `Cc1nn(C(C)C)c(Sc2cccc(Br)c2)c1Cc1ccncc1F`, the IC50 in assay [1] came to 463 nM; in assay [2], 19 nM.

Consider `Cc1cc(C)cc(Sc2c(Cc3ccncc3F)c(C)nn2C(C)C)c1`, for which the IC50 was found to be 90 nM in assay [1] and 8.1 nM in assay [2]. For `CCn1nc(COC)c(Cc2ccccc2)c1Sc1cc(Cl)cc(Cl)c1` the same measures were 8040 nM and 453 nM.

For the molecule `COc1cc(Cl)cc(Sc2c(Cc3ccnc(OC)c3)c(C)nn2C(C)C)c1`, the half-maximal inhibitory concentration (IC50) in assay [1] was found to be 298 nM; in assay [2], 31.5 nM.

On to `Cc1nn(C(C)C)c(Sc2cc(Cl)cc(Cl)c2)c1COCc1ccncc1`, for which the IC50 in assay [1] is 112 nM; in assay [2], 3.6 nM. For `Cc1nn(C(C)C)c(Sc2cc(Cl)cc(Cl)c2)c1Cc1ccncn1` the same measures were 456 nM and 13.5 nM. For `Cc1nn(C(C)C)c(Sc2cc(Cl)cc(Cl)c2)c1Cc1ccccn1` the same measures were 1070 nM and 75 nM. In the case of `Cc1nn(-c2ccccc2)c(Sc2cc(Cl)cc(Cl)c2)c1Cc1ccccc1`, the half-inhibitory concentration (IC50) is 2060 nM in assay [1] and 403 nM in assay [2]. The matching figures for `Cc1nn(C(C)C)c(Sc2cc(Cl)cc(Cl)c2)c1COc1cccnc1`: 313 nM and 110 nM. For `Cc1nn(C(C)C)c(Sc2cc(Cl)cc(Cl)c2)c1Cc1cnccn1` the same measures were 270 nM and 13.9 nM. For `Cc1nn(C(C)C)c(Sc2cc(Cl)cc(Cl)c2)c1COCc1ccccc1` the same measures were 349 nM and 100 nM. As to `Cc1cc(C)cc(Sc2c(Cc3ccncc3Cl)c(C)nn2C(C)C)c1`, in assay [1], the concentration for half-maximal inhibition (IC50) worked out at 607 nM. In the case of `Cc1nn(C(C)C)c(Sc2cc(Cl)cc(Cl)c2)c1Cc1ccccc1`, the figures for the concentration for half-maximal inhibition (IC50) in assay [1] and in assay [2] were 270 nM and 24 nM, respectively. For `Cc1nn(C(C)C)c(Sc2cc(Cl)cc(Cl)c2)c1COc1cncc(Cl)c1` the same measures were 650 nM and 203 nM. The matching figures for `Cc1nn(C(C)C)c(Sc2cc(Cl)cc(Cl)c2)c1Cc1ccncc1Cl`: 177 nM and 51.7 nM. For `Cc1nn(-c2ccccc2)c(Sc2cc(Cl)cc(Cl)c2)c1CCc1ccccc1`, the IC50 in assay [1] turned out to be 3420 nM; in assay [2] it was 592 nM. Consider `Cc1cc(C)cc(Sc2c(Cc3ccccn3)c(C)nn2C(C)C)c1`, for which the figures for the IC50 in assay [1] and in assay [2] were 950 nM and 64 nM, respectively.

For orientation: IC50 means the concentration at which inhibition is half-maximal.
